The text below walks through data of patent US10017520B2, “Myc modulators and uses thereof” (Massachusetts Institute of Technology, priority 2014, dated 2018).

Values after ≈ are worked out from the molar mass of the structure shown. Where two headings read alike, the source gives them in different places. Where only a bound is given, the exact number is not on record here.

One series concerns NCIH1975 cells. The series can be described thus: Cell viability, CELL TITER GLO assay (Promega), NCIH1975 cells. In kind it is cell-based. As to conditions: Homo sapiens, NCI-H1975. As for the experimental part:
(§1) FIGS. 2A to 2E show exemplary results of cell viability assay of compound 1. […] Results were expressed as a mean+/−SEM (n=3). RLU: Relative Luminescence Units.
(§2) The effect of compound 1 on cell viability in several cancer cell lines were determined. The cancer cell lines employed in the assay included those corresponding to hematopoietic and solid tumors. Exemplary results are shown in FIGS. 2A to 2E, where viability was assessed by CELL TITER GLO assay (Promega). Compound 1 was also submitted in a blinded fashion to the National Cancer Institute's CTD cancer cell line profiling pipeline, which enabled sensitivity profiling in about 800 cancer cell lines with annotation of specific genomic lesions that impart on human cancers (FIGS. 3A to 3B). […] The effects of other compounds described herein on cell viability in several cancer cell lines were also determined, and exemplary results are shown in Table 2, where viability was assessed by CELL TITER GLO assay (Promega).
A general note: In ATP-based viability assays light output follows the ATP content of the culture.

The nature of series [1]: Intrinsic clearance (liver microsomes, human), half-life. In kind it is in vitro ADME. For orientation: Liver microsomes are vesicles of endoplasmic reticulum, rich in cytochrome P450 enzymes.
Series [2] relates to c-Myc. As to the kind of experiment: c-Myc reporter gene assay (Qiagen) in HEK293T cells. In kind it is cell-based. As to conditions: Homo sapiens, HEK-293T, 16 h, treatment 16 hours, Firefly/Renilla ratio. The protocol:
Compound 1's activity against Myc was measured as a Firefly/Renilla ratio, using the Myc reporter assay (Qiagen) in HEK293T cells after treatment with compound 1 for 16 hours. Results are expressed as a mean+/−SD (n=3). SD: standard deviation.
Select compounds described herein that were SMM assay positives were evaluated in several versions of a c-Myc reporter gene assay, including a commercial assay from Qiagen. The compounds' activities against c-Myc were measured as a Firefly/Renilla ratio, using the Myc reporter assay (Qiagen) in HEK293T cells after treatment with the compounds for 16 hours.
(Reporter assays use an easily measured gene product as a stand-in for the process of interest.)

In series [3] the test system is c-Myc. The series can be described thus: Affinity-based pull down of c-Myc from nuclear lysate with compound-loaded beads, Western blot. In kind it is binding. As for the experimental part: Compound 19 beads (Figure SA) and compound 55 beads (FIG. 5B) were used. Results are expressed as a mean+/−SEM (n=3). Compound 55 beads were formed by a method analogous to the method shown in FIG. 4, where beads were linked to the —NH2 moiety of compound 55 by forming a urea moiety.
In order to explore the mechanism of action of compound 1, preliminary target identification experiments involving affinity-based pull downs were carried out. […] The structure of compound 19 allowed for linking compound 1 to beads (AFFI-GEL 102, Bio-Rad) (FIG. 4).
The linkage site to the bead via the nitrogen atom of the benzimidazolyl moiety was the original site of attachment to the small-molecule microarray and represented the orientation in the original screen.

For another series, the system named is Namalwa cells. As to the kind of experiment: Cell viability, CELL TITER GLO assay (Promega), Namalwa cells. In kind it is cell-based. The protocol: as §1, §2
A further series deals with Eu-Myc Arf −/− cells. The series can be described thus: Cell viability, CELL TITER GLO assay (Promega), Eu-Myc Arf −/− cells. The class given is cell-based. As for the experimental part:
as §2

A further series relates to cancer cell lines. As to the kind of experiment: Cell viability in cancer cell lines (CELL TITER GLO; CTD cancer cell line profiling). The class given is cell-based. The protocol: as §1
FIGS. 3A to 3B show CTD^2 viability data profile of cancer cell lines treated with compound 1. FIG. 3A: dose response curves of 789 cell lines treated with compound 1 for 72 hours. FIG. 3B: relative percent composition of cell lineages and enrichment analysis after treatment with compound 1.
as §2

The nature of series [4]: Aqueous solubility at 37° C. The class given is physicochemical.

By IC50 is commonly meant the concentration at which inhibition is half-maximal. One may read the solubility as the dissolved amount per volume that the medium holds. As to `CC(C)N1C(=O)S/C(=C\c2ccc(Sc3nc4ccccc4[nH]3)o2)C1=O` [Compound 1, (Z)-5-((5-((1H-benzo[d]imidazol-2-yl)thio)furan-2-yl)methylene)-3-isopropylthiazolidine-2,4-dione], the IC50 in the series with NCIH1975 cells came out at 24.9 µM; with c-Myc [2], 0.67 µM; with Namalwa cells it was 21.1 µM; in the series with Eu-Myc Arf −/− cells it was 10.2 µM. For the same compound, the “Half-life, intrinsic clearance (liver microsomes, human)” value in series [1] came to 22 min. Moreover, the “c-Myc levels pulled down with free compound as soluble competitor” value in the series on c-Myc [3] (beads linked via nitrogen atom of the benzimidazolyl moiety (compound 55 beads)) is on record as “decreased levels of c-Myc”. Besides, in the series with c-Myc [3] (compound 19 beads, nuclear lysate, 5 μM soluble competitor), the “c-Myc pulled down with free compound as soluble competitor” value is on record as “less c-Myc pulled down”. In addition, in the series on cancer cell lines (3 days, NCIH1975, SNUC5, Namalwa, KLP1, Hela, CELL TITER GLO), the “effect on cell viability in 5 cancer cell lines” value is on record as “affected cell viability”. In addition, the “effect on cell viability in a variety of cancer cell lines” value with cancer cell lines (several cancer cell lines and CTD profiling of about 800 cancer cell lines, 72 hours) is listed as “demonstrated an effect in cell viability”. Besides, the solubility in series [4] (aqueous buffer, PBS, pH 7.4, 37° C., read-out: Solubility at 37° C., aqueous solubility (PBS, pH 7.4)) was < 1 µM; in series [4] (fassgf or other biorelevant, simulated intestinal fluid, 37° C., read-out: Solubility at 37° C., aqueous solubility (simulated intestinal fluid)) it was 80.2 µM (≈ 30.9 µg/mL); in series [4] (simulated gastric fluid, 37° C., read-out: Solubility at 37° C., aqueous solubility (simulated gastric fluid)), 62.7 µM (≈ 24.2 µg/mL).
